# Experimental data: ChEMBL document CHEMBL1121501, “Synthesis and preliminary binding studies of 4,4-ditritio-(-)-nicotine of high specific activity” (J Med Chem, 1980)
# Assays:
# [1] = species: Rattus norvegicus
# Description: Compound was evaluated for the binding affinity at crude mitochondrial fraction of rat whole brain at 13 fmol of binding sites/mg of protein
# [2] = species: Rattus norvegicus; remark: listed apart in the source
# Description: Compound was evaluated for the binding affinity at crude mitochondrial fraction of rat whole brain at 7 nmol/mg of protein.
smiles,measurement,setting,value
CN1CCC[C@H]1c1cccnc1,Ka,[1],4.7e+06 M⁻¹
same,Ka,[2],4400 M⁻¹
